Data as given in ChEMBL document CHEMBL3822442, “Synthesis and Pharmacological Characterization of Novel Glucagon-like Peptide-2 (GLP-2) Analogues with Low Systemic Clearance” (J Med Chem, 2016).
The source made the active and inactive calls. No cut-off for these calls is given here.

Legend:
[1] = biological target: T1, Glucagon-like peptide 2 receptor (Homo sapiens, UniProt O95838); test: Agonist activity at human GLP2R expressed in HEK293 cells after 5 hrs by luciferase reporter gene assay; format: cell-based
T1 sequence (O95838 whole entry): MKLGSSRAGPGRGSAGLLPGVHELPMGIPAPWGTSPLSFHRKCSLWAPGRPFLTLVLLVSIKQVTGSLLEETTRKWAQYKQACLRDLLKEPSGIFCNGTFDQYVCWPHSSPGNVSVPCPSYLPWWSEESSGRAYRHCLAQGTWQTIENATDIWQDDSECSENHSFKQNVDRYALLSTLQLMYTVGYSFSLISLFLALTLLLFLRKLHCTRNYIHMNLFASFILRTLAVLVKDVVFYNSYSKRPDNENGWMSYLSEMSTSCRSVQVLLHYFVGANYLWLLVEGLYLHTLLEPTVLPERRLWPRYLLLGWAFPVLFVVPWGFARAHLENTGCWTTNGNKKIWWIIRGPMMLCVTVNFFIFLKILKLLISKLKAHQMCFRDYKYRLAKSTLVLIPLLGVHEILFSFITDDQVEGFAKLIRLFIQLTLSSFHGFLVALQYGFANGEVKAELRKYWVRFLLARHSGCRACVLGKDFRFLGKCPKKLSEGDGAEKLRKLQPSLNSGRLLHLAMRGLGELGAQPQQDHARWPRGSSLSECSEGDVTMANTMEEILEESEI

[2] = biological target: Glucagon-like peptide 1 receptor (Homo sapiens, UniProt P43220); test: Agonist activity at human GLP1R expressed in HEK293 cells after 5 hrs by luciferase reporter gene assay; format: cell-based
Chain of Glucagon-like peptide 1 receptor (P43220 whole entry): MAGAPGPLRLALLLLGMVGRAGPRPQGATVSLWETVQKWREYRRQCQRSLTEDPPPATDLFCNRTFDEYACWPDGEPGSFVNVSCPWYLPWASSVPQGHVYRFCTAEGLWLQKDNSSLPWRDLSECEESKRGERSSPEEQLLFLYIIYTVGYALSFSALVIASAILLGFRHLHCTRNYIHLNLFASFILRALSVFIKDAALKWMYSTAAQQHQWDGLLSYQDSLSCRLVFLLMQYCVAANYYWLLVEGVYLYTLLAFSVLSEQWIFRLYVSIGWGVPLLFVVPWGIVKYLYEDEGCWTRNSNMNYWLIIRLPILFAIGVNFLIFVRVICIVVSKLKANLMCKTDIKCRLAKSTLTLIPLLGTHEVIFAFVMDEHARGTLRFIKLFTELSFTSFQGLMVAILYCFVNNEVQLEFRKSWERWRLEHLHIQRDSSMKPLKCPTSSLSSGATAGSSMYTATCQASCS

HEK293 = test: Selectivity ratio of EC50 for human GLP1R expressed in HEK293 cells to EC50 for human GLP2R expressed in HEK293; format: cell-based
[3] = Systemic clearance in Sprague-Dawley rat at 0.2 mg/kg, iv through cassette dosing measured up to 300 mins by LC/MS/MS analysis; format: ADME, organism-based; conditions: in vivo
[4] = biological target: Glucagon receptor (Homo sapiens) (UniProt P47871); test: Agonist activity at human GCGR expressed in HEK293 cells after 5 hrs by luciferase reporter gene assay; format: cell-based
Chain of Glucagon receptor (Homo sapiens) (P47871 whole entry): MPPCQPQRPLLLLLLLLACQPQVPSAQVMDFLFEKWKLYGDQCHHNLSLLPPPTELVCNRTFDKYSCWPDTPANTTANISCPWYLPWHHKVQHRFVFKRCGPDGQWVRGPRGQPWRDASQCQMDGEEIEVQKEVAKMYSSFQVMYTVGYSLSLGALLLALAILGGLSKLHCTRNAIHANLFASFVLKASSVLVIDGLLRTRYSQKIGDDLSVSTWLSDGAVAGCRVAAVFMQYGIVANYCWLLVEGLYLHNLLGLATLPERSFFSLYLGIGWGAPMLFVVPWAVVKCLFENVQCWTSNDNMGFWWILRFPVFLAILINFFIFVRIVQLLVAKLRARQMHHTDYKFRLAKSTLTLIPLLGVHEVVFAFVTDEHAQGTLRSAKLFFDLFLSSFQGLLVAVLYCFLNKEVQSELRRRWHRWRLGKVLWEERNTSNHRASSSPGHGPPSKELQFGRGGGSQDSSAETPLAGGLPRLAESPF

| Structure (SMILES) | EC50 [1] | EC50 [2] | clearance [3] | Activity [4] | Ratio EC50 (HEK293) |
| --- | --- | --- | --- | --- | --- |
| CCCCC(NC(=O)[C@H](CCC(=O)O)NC(=O)[C@H](CC(=O)O)NC(=O)[C@H](CO)NC(=O)[C@H](Cc1ccccc1)NC(=O)[C@H](CO)NC(=O)CNC(=O)[C@H](CC(=O)O)NC(=O)CNC(=O)[C@@H](N)Cc1cnc[nH]1)C(=O)N[C@H](Cc1ccccc1)C(=O)N[C@H](C(=O)N[C@H](C(=O)N[C@@H](CC(C)C)C(=O)N[C@@H](CC(=O)O)C(=O)N[C@@H](CC(C)C)C(=O)N[C@@H](CC(C)C)C(=O)N[C@@H](C)C(=O)N[C@H](C(=O)N[C@@H](CCCNC(=N)N)C(=O)N[C@@H](CC(=O)O)C(=O)N[C@@H](Cc1ccccc1)C(=O)N[C@H](C(=O)N[C@@H](CC(N)=O)C(=O)N[C@@H](Cc1c[nH]c2ccccc12)C(=O)N[C@@H](CC(C)C)C(=O)N[C@H](C(=O)N[C@@H](CCC(N)=O)C(=O)N[C@H](C(=O)N[C@@H](CCCCN)C(N)=O)[C@@H](C)O)[C@@H](C)CC)[C@@H](C)CC)[C@@H](C)O)[C@@H](C)CC)[C@@H](C)O (some centres not stated) | 0.04 nM | 130 nM | 0.49 mL/min/kg | – | 3200 |
| CCCCC(NC(=O)[C@H](CCC(=O)O)NC(=O)[C@H](CC(=O)O)NC(=O)[C@H](CO)NC(=O)[C@H](Cc1ccccc1)NC(=O)[C@H](CO)NC(=O)CNC(=O)[C@H](CC(=O)O)NC(=O)CNC(=O)[C@@H](N)Cc1cnc[nH]1)C(=O)N[C@H](Cc1cccs1)C(=O)N[C@H](C(=O)N[C@H](C(=O)N[C@@H](CC(C)C)C(=O)N[C@@H](CC(=O)O)C(=O)N[C@@H](Cc1ccccc1)C(=O)N[C@@H](CC(C)C)C(=O)N[C@@H](C)C(=O)N[C@@H](C)C(=O)N[C@@H](CCCNC(=N)N)C(=O)N[C@@H](CC(=O)O)C(=O)N[C@@H](Cc1ccccc1)C(=O)N[C@H](C(=O)N[C@@H](CC(N)=O)C(=O)N[C@@H](Cc1c[nH]c2ccccc12)C(=O)N[C@@H](CC(C)C)C(=O)N[C@H](C(=O)N[C@@H](CCC(N)=O)C(=O)N[C@H](C(=O)N[C@@H](CCCCN)C(N)=O)[C@@H](C)O)[C@@H](C)CC)[C@@H](C)CC)[C@@H](C)CC)[C@@H](C)O (some centres not stated) | – | – | – | – | > 12000 |
| CCCCC(NC(=O)[C@H](CCC(=O)O)NC(=O)[C@H](CC(=O)O)NC(=O)[C@H](CO)NC(=O)[C@H](Cc1ccccc1)NC(=O)[C@H](CO)NC(=O)CNC(=O)[C@H](CC(=O)O)NC(=O)CNC(=O)[C@@H](N)Cc1cnc[nH]1)C(=O)N[C@H](Cc1ccccc1)C(=O)N[C@H](C(=O)N[C@H](C(=O)N[C@@H](CC(C)C)C(=O)N[C@@H](CC(=O)O)C(=O)N[C@@H](CC(C)C)C(=O)N[C@@H](CC(C)C)C(=O)N[C@@H](C)C(=O)N[C@@H](C)C(=O)N[C@@H](CCCNC(=N)N)C(=O)N[C@@H](CC(=O)O)C(=O)N[C@@H](Cc1ccccc1)C(=O)N[C@H](C(=O)N[C@@H](CC(N)=O)C(=O)N[C@@H](Cc1c[nH]c2ccccc12)C(=O)N[C@@H](CC(C)C)C(=O)N[C@H](C(=O)N[C@@H](CCC(N)=O)C(=O)N[C@H](C(=O)N[C@@H](CCCCN)C(=O)N[C@H](C(=O)N[C@H](C(=O)N[C@@H](CC(=O)O)C(=O)O)[C@@H](C)O)[C@@H](C)CC)[C@@H](C)O)[C@@H](C)CC)[C@@H](C)CC)[C@@H](C)CC)[C@@H](C)O (some centres not stated) | – | – | – | – | > 33000 |
| CCCCC(NC(=O)[C@H](CCC(=O)O)NC(=O)[C@H](CC(=O)O)NC(=O)[C@H](CO)NC(=O)[C@H](Cc1ccccc1)NC(=O)[C@H](CO)NC(=O)CNC(=O)[C@H](CC(=O)O)NC(=O)CNC(=O)[C@@H](N)Cc1cnc[nH]1)C(=O)N[C@H](Cc1ccccc1)C(=O)N[C@H](C(=O)N[C@H](C(=O)N[C@@H](CC(C)C)C(=O)N[C@@H](CC(=O)O)C(=O)N[C@@H](CC(C)C)C(=O)N[C@@H](CC(C)C)C(=O)N[C@@H](C)C(=O)N[C@@H](C)C(=O)N[C@@H](CCCNC(=N)N)C(=O)N[C@@H](CC(=O)O)C(=O)N[C@@H](Cc1ccccc1)C(=O)N[C@H](C(=O)N[C@@H](CC(N)=O)C(=O)N[C@@H](Cc1c[nH]c2ccccc12)C(=O)N[C@@H](CC(C)C)C(=O)N[C@H](C(=O)N[C@@H](CCC(N)=O)C(=O)N[C@H](C(=O)N[C@@H](CCCCN)C(=O)N[C@H](C(=O)N[C@H](C(=O)N[C@@H](CC(=O)O)C(=O)NCCOCCOCCOCCOCCC(N)=O)[C@@H](C)O)[C@@H](C)CC)[C@@H](C)O)[C@@H](C)CC)[C@@H](C)CC)[C@@H](C)CC)[C@@H](C)O (some centres not stated) | – | – | – | – | > 33000 |

Further lines, with some results ahead:

| EC50 [1] | EC50 [2] | clearance [3] | Activity [4] | Structure (SMILES) | Ratio EC50 (HEK293) |
| --- | --- | --- | --- | --- | --- |
| 0.06 nM | > 1000 nM | 0.15 mL/min/kg | – | CCCCC(NC(=O)[C@H](CCC(=O)O)NC(=O)[C@H](CC(=O)O)NC(=O)[C@H](CO)NC(=O)[C@H](Cc1ccccc1)NC(=O)[C@H](CO)NC(=O)CNC(=O)[C@H](CC(=O)O)NC(=O)CNC(=O)[C@@H](N)Cc1cnc[nH]1)C(=O)N[C@H](Cc1ccccc1)C(=O)N[C@H](C(=O)N[C@H](C(=O)N[C@@H](CC(C)C)C(=O)N[C@@H](CC(=O)O)C(=O)N[C@@H](Cc1ccccc1)C(=O)N[C@@H](CC(C)C)C(=O)N[C@@H](C)C(=O)N[C@@H](C)C(=O)N[C@@H](CCCNC(=N)N)C(=O)N[C@@H](CC(=O)O)C(=O)N[C@@H](Cc1ccccc1)C(=O)N[C@H](C(=O)N[C@@H](CC(N)=O)C(=O)N[C@@H](Cc1c[nH]c2ccccc12)C(=O)N[C@@H](CC(C)C)C(=O)N[C@H](C(=O)N[C@@H](CCC(N)=O)C(=O)N[C@H](C(=O)N[C@@H](CCCCN)C(=O)N[C@H](C(=O)N[C@H](C(=O)N[C@@H](CC(=O)O)C(=O)O)[C@@H](C)O)[C@@H](C)CC)[C@@H](C)O)[C@@H](C)CC)[C@@H](C)CC)[C@@H](C)CC)[C@@H](C)O (some centres not stated) | > 16000 |
| – | – | – | inactive | CCCCC(NC(=O)[C@H](CCC(=O)O)NC(=O)[C@H](CC(=O)O)NC(=O)[C@H](CO)NC(=O)[C@H](Cc1ccccc1)NC(=O)[C@H](CO)NC(=O)CNC(=O)[C@H](CC(=O)O)NC(=O)CNC(=O)[C@@H](N)Cc1cnc[nH]1)C(=O)N[C@H](CC(C)C)C(=O)N[C@H](C(=O)N[C@H](C(=O)N[C@@H](CC(C)C)C(=O)N[C@@H](CC(=O)O)C(=O)N[C@@H](CC(N)=O)C(=O)N[C@@H](CC(C)C)C(=O)N[C@@H](C)C(=O)N[C@@H](C)C(=O)N[C@@H](CCCNC(=N)N)C(=O)N[C@@H](CC(=O)O)C(=O)N[C@@H](Cc1ccccc1)C(=O)N[C@H](C(=O)N[C@@H](CC(N)=O)C(=O)N[C@@H](Cc1c[nH]c2ccccc12)C(=O)N[C@@H](CC(C)C)C(=O)N[C@H](C(=O)N[C@@H](CCC(N)=O)C(=O)N[C@H](C(=O)N[C@@H](CCCCN)C(N)=O)[C@@H](C)O)[C@@H](C)CC)[C@@H](C)CC)[C@@H](C)CC)[C@@H](C)O (some centres not stated) | – |
| 0.07 nM | 90 nM | 0.48 mL/min/kg | – | CCCCC(NC(=O)[C@H](CCC(=O)O)NC(=O)[C@H](CC(=O)O)NC(=O)[C@H](CO)NC(=O)[C@H](Cc1ccccc1)NC(=O)[C@H](CO)NC(=O)CNC(=O)[C@H](CC(=O)O)NC(=O)CNC(=O)[C@@H](N)Cc1cnc[nH]1)C(=O)N[C@H](Cc1ccccc1)C(=O)N[C@H](C(=O)N[C@H](C(=O)N[C@@H](CC(C)C)C(=O)N[C@@H](CC(=O)O)C(=O)N[C@@H](Cc1ccc(O)cc1)C(=O)N[C@@H](CC(C)C)C(=O)N[C@@H](C)C(=O)N[C@@H](C)C(=O)N[C@@H](CCCNC(=N)N)C(=O)N[C@@H](CC(=O)O)C(=O)N[C@@H](Cc1ccccc1)C(=O)N[C@H](C(=O)N[C@@H](CC(N)=O)C(=O)N[C@@H](Cc1c[nH]c2ccccc12)C(=O)N[C@@H](CC(C)C)C(=O)N[C@H](C(=O)N[C@@H](CCC(N)=O)C(=O)N[C@H](C(=O)N[C@@H](CCCCN)C(N)=O)[C@@H](C)O)[C@@H](C)CC)[C@@H](C)CC)[C@@H](C)CC)[C@@H](C)O (some centres not stated) | 1200 |
| 0.22 nM | > 1000 nM | 0.67 mL/min/kg | – | CCCC[C@H](NC(=O)[C@H](CCC(=O)O)NC(=O)[C@H](CC(=O)O)NC(=O)[C@H](CO)NC(=O)[C@H](Cc1ccccc1)NC(=O)[C@H](CO)NC(=O)CNC(=O)[C@H](CC(=O)O)NC(=O)CNC(=O)[C@@H](N)Cc1cnc[nH]1)C(=O)N[C@@H](CC(N)=O)C(=O)N[C@H](C(=O)N[C@H](C(=O)N[C@@H](CC(C)C)C(=O)N[C@@H](CC(=O)O)C(=O)N[C@@H](Cc1ccc(Cl)cc1)C(=O)N[C@@H](CC(C)C)C(=O)N[C@@H](C)C(=O)N[C@@H](C)C(=O)N[C@@H](CCCNC(=N)N)C(=O)N[C@@H](CC(=O)O)C(=O)N[C@@H](Cc1ccccc1)C(=O)N[C@H](C(=O)N[C@@H](CC(N)=O)C(=O)N[C@@H](Cc1c[nH]c2ccccc12)C(=O)N[C@@H](CC(C)C)C(=O)N[C@H](C(=O)N[C@@H](CCC(N)=O)C(=O)N[C@H](C(=O)N[C@@H](CCCCN)C(N)=O)[C@@H](C)O)[C@@H](C)CC)[C@@H](C)CC)[C@@H](C)CC)[C@@H](C)O | – |
| 0.07 nM | 70 nM | 0.52 mL/min/kg | – | CCCCC(NC(=O)[C@H](CCC(=O)O)NC(=O)[C@H](CC(=O)O)NC(=O)[C@H](CO)NC(=O)[C@H](Cc1ccccc1)NC(=O)[C@H](CO)NC(=O)CNC(=O)[C@H](CC(=O)O)NC(=O)CNC(=O)[C@@H](N)Cc1cnc[nH]1)C(=O)N[C@H](Cc1cccs1)C(=O)N[C@H](C(=O)N[C@H](C(=O)N[C@@H](CC(C)C)C(=O)N[C@@H](CC(=O)O)C(=O)N[C@@H](Cc1ccc(O)cc1)C(=O)N[C@@H](CC(C)C)C(=O)N[C@@H](C)C(=O)N[C@@H](C)C(=O)N[C@@H](CCCNC(=N)N)C(=O)N[C@@H](CC(=O)O)C(=O)N[C@@H](Cc1ccccc1)C(=O)N[C@H](C(=O)N[C@@H](CC(N)=O)C(=O)N[C@@H](Cc1c[nH]c2ccccc12)C(=O)N[C@@H](CC(C)C)C(=O)N[C@H](C(=O)N[C@@H](CCC(N)=O)C(=O)N[C@H](C(=O)N[C@@H](CCCCN)C(N)=O)[C@@H](C)O)[C@@H](C)CC)[C@@H](C)CC)[C@@H](C)CC)[C@@H](C)O (some centres not stated) | – |
